{
  "source": "patent US11337990B2",
  "about": "“Human milk oligosaccharides to promote growth of beneficial bacteria” (ABBOTT LABORATORIES, priority 2010, dated 2022)",
  "key": {"bifidobacteria strains": {"tested_on": "bifidobacteria strains", "assay": "Bacterial growth assay (OD600), panel of 12 strains", "assay_type": "cell-based, Bifidobacterium", "details": "1% carbohydrate in sMRS+cysteine", "description": "(§1) Coy Laboratory Products, Grass Lake, Mich.). Subsequently, the cultures are passed twice on a semi-synthetic MRS medium ([…] which is supplemented with 1% (w/v) filter-sterilized glucose as the sole carbohydrate source. […] For bifidobacteria strains, the same procedure is followed except all media are supplemented with 0.5 g/l L-cysteine/HCl. [table] After the 2nd pass in sMRS+glucose+cysteine, the cultures are washed once with 10 mL of sterile sMRS+cysteine (no carbohydrate), resuspended in 10 ml of sterile sMRS+cysteine (no carbohydrate) and then used as a 1% inoculum. The carbohydrates are sterilized with a 0.22 micron filter and used at a 1% final concentration. Cell growth is performed in 250 μL of sMRS+cysteine covered with 50 μL of mineral oil in a Bioscreen 100-well Honeycomb plate. […] The plate reader is operated in discontinuous mode, with absorbance readings performed in 30-minute intervals, and preceded by 30-second shaking intervals at maximum speed. Controls consist of inoculated medium lacking carbohydrate. […] All three plates include a positive control (glucose) and negative control (no carbohydrate). The OD600 data for each carbohydrate is corrected by subtracting the OD600 of the basal media (sMRS)+cysteine from the sample plate for each probiotic. Maximum OD is determined by inspection of the corrected growth data. OD is determined by subtracting the initial corrected OD (time point 0) from the maximum corrected OD. Samples are grown in biologically independent triplicates and the resulting growth kinetic data are expressed as the mean of these replicates. For the growth curve plots, OD600 vs. time is first plotted for the bacteria grown on medium lacking carbohydrate (sMRS). For all other carbohydrates, the OD600 data is corrected by subtracting the OD600 of sMRS."}, "Caco-2 cells": {"tested_on": "Caco-2 cells", "assay": "Alkaline phosphatase activity per milligram of protein (cell differentiation), Caco-2", "assay_type": "cell-based, human", "details": "Example 48: LNnT or 2′FL 20, 200, 2000 mg/L; 6′SL 40, 400, 4000 mg/mL; 72 hours", "description": "In a second experiment, Caco-2 cells, which model more mature epithelial cells of the small intestine, are incubated in a humidified atmosphere of 5% carbon dioxide at 37° C. in the presence of LNnT or 2′FL at concentrations of 0 mg/L (“0”), 20 mg/L (“20”), 200 mg/L (“200”), and 2000 mg/L (“2000”) or in the presence of 6′SL at concentrations of 0 mg/mL (“0”), 40 mg/mL (“40”), 400 mg/mL (“400”), and 4000 mg/mL (“4000”) for 72 hours. The culture medium utilized is Dulbecco's Modified Eagle Medium (Life Technologies, Foster City Calif.) supplemented with 10% fetal calf serum and 2 mM glutamine. The controls (“energy”) consist of 91.5 mg lactose and 64.2 mg N-acetyllactosamine/L for LNnT; 133 mg lactose and 67 mg fucose/L for 2′FL; and 195 mg lactose and 205 mg sialic acid/L for 6′SL. The impact of the LNnT, 2′FL, and 6′SL at various levels and the control on Caco-2 cell proliferation is measured using a conventional BrdU assay, which measures the number of cells that have recently synthesized DNA. […] Additionally, the impact of LNnT, 2′FL, and 6′SL at various levels and the controls on the alkaline phosphatase activity per milligram of protein for Caco-2 cells, which is an indication of cell differentiation, is measured."}, "infant fecal bacteria": {"tested_on": "infant fecal bacteria", "assay": "In vitro substrate fermentation model with infant feces (pH, SCFA, lactate)", "assay_type": "cell-based, human infant"}, "Bifidobacterium spp.": {"tested_on": "Bifidobacterium spp.", "assay": "qPCR of bacterial populations in in vitro fecal fermentation", "assay_type": "cell-based", "details": "overall, 0-12 h fermentation; sodium salt"}, "HT-29 cells [1]": {"tested_on": "HT-29 cells", "assay": "HT-29 cell proliferation, BrdU assay", "assay_type": "cell-based, human", "details": "Example 48: LNnT or 2′FL 20, 200, 2000 mg/L; 6′SL 40, 400; 72 hours; sodium salt", "description": "In a first experiment, HT-29 cells, which model the immature epithelial cells of the small intestine, are incubated in a humidified atmosphere of 5% carbon dioxide at 37 C in the presence of LNnT at concentrations of 0 mg/L (“0”), 100 mg/L (“100”), 200 mg/L (“200”), and 400 mg/L (“400”) for either 48 hours or 72 hours. The culture medium utilized is Dulbecco's Modified Eagle Medium (Life Technologies, Foster City Calif.) supplemented with 10% fetal calf serum and 2 mM glutamine. The control consists of a combination of 91.5 mg lactose and 62.4 mg galactosamine (“LG”) per Liter of the Dulbecco's Modified Eagle Medium set forth above. The impact of the LNnT at various levels and the control on HT-29 cell proliferation is measured using a conventional BrdU assay, which measures the number of cells that have recently synthesized DNA.\n(§2) In a first experiment, HT-29 cells, which model the immature epithelial cells of the small intestine, are incubated in a humidified atmosphere of 5% carbon dioxide at 37° C. in the presence of LNnT or 2′FL at concentrations of 0 mg/L (“0”), 20 mg/L (“20”), 200 mg/L (“200”), and 2000 mg/L (“2000”) or in the presence of 6′SL at concentrations of 0 mg/mL (“0”), 40 mg/mL (“40”), 400 mg/mL (“400”), and 4000 mg/mL (“4000”) for 72 hours. The culture medium utilized is Dulbecco's Modified Eagle Medium (Life Technologies, Foster City Calif.) supplemented with 10% fetal calf serum and 2 mM glutamine. The controls (“energy”) consist of 91.5 mg lactose and 64.2 mg N-acetyllactosamine/L for LNnT; 133 mg lactose and 67 mg fucose/L for 2′FL; and 195 mg lactose and 205 mg/L sialic acid for 6′SL. The impact of the LNnT, 2′FL, and 6′SL at various levels and the controls on HT-29 cell proliferation is measured using a conventional BrdU assay, which measures the number of cells that have recently synthesized DNA. […] Additionally, the impact of LNnT, 2′FL, and 6′SL at various levels and the controls on the alkaline phosphatase activity per milligram of protein for HT-29 cells, which is an indicator of cell differentiation, is measured."}, "HT-29 cells [2]": {"tested_on": "HT-29 cells", "assay": "Alkaline phosphatase activity per milligram of protein (cell differentiation), HT-29", "assay_type": "cell-based, human", "details": "Example 48: LNnT or 2′FL 20, 200, 2000 mg/L; 6′SL 40, 400; 72 hours", "description": "as §2"}, "B. infantis M-63": {"tested_on": "B. infantis M-63", "assay": "Bacterial growth assay (OD600)", "assay_type": "cell-based, Bifidobacterium infantis", "details": "1% carbohydrate in sMRS+cysteine", "description": "as §1"}, "B. infantis ATCC 15697": {"tested_on": "B. infantis ATCC 15697", "assay": "Bacterial growth assay (OD600)", "assay_type": "cell-based, Bifidobacterium infantis", "details": "1% carbohydrate in sMRS+cysteine", "description": "as §1"}, "B. breve ATCC 15700": {"tested_on": "B. breve ATCC 15700", "assay": "Bacterial growth assay (OD600)", "assay_type": "cell-based, Bifidobacterium breve", "details": "1% carbohydrate in sMRS+cysteine", "description": "Coy Laboratory Products, Grass Lake, Mich.). Subsequently, the cultures are passed twice on a semi-synthetic MRS medium ([…] which is supplemented with 1% (w/v) filter-sterilized glucose as the sole carbohydrate source. […] For bifidobacteria strains, the same procedure is followed except all media are supplemented with 0.5 g/l L-cysteine/HCl. […] After the 2nd pass in sMRS+glucose+cysteine, the cultures are washed once with 10 mL of sterile sMRS+cysteine (no carbohydrate), resuspended in 10 ml of sterile sMRS+cysteine (no carbohydrate) and then used as a 1% inoculum. The carbohydrates are sterilized with a 0.22 micron filter and used at a 1% final concentration. Cell growth is performed in 250 μL of sMRS+cysteine covered with 50 μL of mineral oil in a Bioscreen 100-well Honeycomb plate. […] The plate reader is operated in discontinuous mode, with absorbance readings performed in 30-minute intervals, and preceded by 30-second shaking intervals at maximum speed. Controls consist of inoculated medium lacking carbohydrate. […] Maximum OD is determined by inspection of the corrected growth data. OD is determined by subtracting the initial corrected OD (time point 0) from the maximum corrected OD. Samples are grown in biologically independent triplicates and the resulting growth kinetic data are expressed as the mean of these replicates. […]"}},
  "note": "Entries after “also recorded” stand apart in the source; their conditions may differ.",
  "data": [
    {"smiles": "O=C(CO)[C@@H](O)[C@H](O)[C@H](O)CO", "note": "[fructose]", "values": [
      {"measurement": "growth / ability to ferment (OD600)", "setting": "bifidobacteria strains", "result": "majority of bifidobacteria is able to ferment"}
    ]},
    {"smiles": "CC(=O)N[C@H]1C([C@H](O)[C@H](O)CO)O[C@@](OCC2O[C@@H](O[C@@H]3C(CO)OC(O)C(O)[C@H]3O)C(O)[C@@H](O)[C@H]2O)(C(=O)[O-])C[C@H]1O.[Na+]", "note": "(stereo in doubt) [6′SL, α-(2-6′)-N-Acetylneuraminyl-lactose sodium salt]", "values": [
      {"measurement": "alkaline phosphatase activity per milligram of protein (cell differentiation)", "setting": "Caco-2 cells", "result": "no apparent effect"},
      {"measurement": "fermentation rate", "setting": "infant fecal bacteria", "result": "about 1,809 μg/g of dry matter/hour"},
      {"measurement": "acetate production", "setting": "infant fecal bacteria; 3 and 6 h", "result": "intermediate"},
      {"measurement": "acetate production, formula fed versus breast fed infants", "setting": "infant fecal bacteria; 12 h", "result": "greater"},
      {"measurement": "propionate production", "setting": "infant fecal bacteria; 12 h of fermentation", "result": "large increase"},
      {"measurement": "total SCFA production", "setting": "infant fecal bacteria; 12 h of fermentation, sodium salt", "result": "greater (P<0.05); also recorded: substantial amounts of SCFA"},
      {"measurement": "total SCFA production", "setting": "infant fecal bacteria; after 3 and 6 h of fermentation", "result": "lower (P<0.05) with 6′SL compared to GOS"},
      {"measurement": "total SCFA production, formula fed versus breast fed infants", "setting": "infant fecal bacteria; after 6 and 12 h of fermentation", "result": "greater (P=0.01) fermentation by formula fed infants"},
      {"measurement": "propionate production", "setting": "infant fecal bacteria; overall", "result": "greater (P<0.0001) propionate production than all other substrates"},
      {"measurement": "fermentability by infant fecal bacteria", "setting": "infant fecal bacteria; overall, sodium salt", "result": "highly fermentable; also recorded: readily fermented"},
      {"measurement": "lactate accumulation", "setting": "infant fecal bacteria; up to 12 h, sodium salt", "result": "no lactate accumulation; also recorded: little lactate had accumulated"},
      {"measurement": "bifidobacteria populations", "setting": "Bifidobacterium spp.", "result": "may also be bifidogenic; also recorded: tended to generally increase bifidobacteria levels"},
      {"measurement": "HT-29 cell proliferation", "setting": "HT-29 cells [1]", "result": "capable of reducing cell proliferation at higher doses; also recorded: inhibits intestinal cell proliferation in immature epithelial cells"},
      {"measurement": "alkaline phosphatase activity per milligram of protein (cell differentiation)", "setting": "HT-29 cells [2]", "result": "no apparent effect"},
      {"measurement": "growth / ability to ferment (OD600)", "setting": "bifidobacteria strains", "result": "only B. infantis ATCC 15697 and B. infantis M-63 are able to ferment"},
      {"measurement": "growth / ability to ferment (OD600)", "setting": "B. infantis M-63", "result": "able to ferment"},
      {"measurement": "growth / ability to ferment (OD600)", "setting": "B. infantis ATCC 15697", "result": "able to ferment"}
    ]},
    {"smiles": "OC[C@H]1O[C@@H](O[C@H]2[C@H](O)[C@@H](O)C(O)O[C@@H]2CO)[C@H](O)[C@@H](O)[C@H]1O", "note": "(stereo partly drawn) [lactose]", "values": [
      {"measurement": "growth / ability to ferment (OD600)", "setting": "bifidobacteria strains", "result": "the bifidobacteria, which is not able to ferment galactose, also has reduced growth on lactose"}
    ]},
    {"smiles": "CC(=O)N[C@H]1[C@H]([C@H](O)[C@H](O)CO)O[C@@](O[C@H]2[C@@H](O)[C@@H](CO)O[C@@H](O[C@H]3[C@H](O)[C@@H](O)C(O)O[C@@H]3CO)[C@@H]2O)(C(=O)O)C[C@@H]1O", "note": "(stereo partly drawn) [3′SL, 3′-Sialyllactose]", "values": [
      {"measurement": "growth / ability to ferment (OD600)", "setting": "bifidobacteria strains", "result": "only B. infantis ATCC 15697 and B. infantis M-63 are able to ferment"},
      {"measurement": "growth / ability to ferment (OD600)", "setting": "B. infantis M-63", "result": "able to ferment"},
      {"measurement": "growth / ability to ferment (OD600)", "setting": "B. infantis ATCC 15697", "result": "able to ferment"}
    ]},
    {"smiles": "CC(=O)N[C@@H]1[C@@H](O)[C@H](O)[C@@H](CO)O[C@H]1O", "note": "[NAG, reference compound]", "values": [
      {"measurement": "growth / ability to ferment (OD600)", "setting": "bifidobacteria strains", "result": "Only B. breve ATCC 15700 is able to ferment"},
      {"measurement": "growth / ability to ferment (OD600)", "setting": "B. breve ATCC 15700", "result": "able to ferment"}
    ]},
    {"smiles": "C[C@H](O)[C@@H](O)[C@@H](O)[C@H](O)C=O", "note": "[L-fucose, reference compound]", "values": [
      {"measurement": "growth / ability to ferment (OD600)", "setting": "bifidobacteria strains", "result": "None of the bifidobacteria are able to ferment"},
      {"measurement": "growth / ability to ferment (OD600)", "setting": "B. infantis M-63", "result": "not able to ferment"},
      {"measurement": "growth / ability to ferment (OD600)", "setting": "B. infantis ATCC 15697", "result": "not able to ferment"}
    ]}
  ]
}
